Experimental data reported in US20240067693A1, “POLYPEPTIDES AND USES THEREOF” (MEDIMMUNE LIMITED, priority 2020, published 2024).
Numbered stars: 1 amine (or outer) side, 2 acyl side, 3 side chain; on linkers, the order of the positions; unused ones are H or OH. Bridge positions count the residues as written; N and C are the ends. Square brackets hold non-standard residues; d marks the D form. Side chains are listed from the residue outwards. Peptide text beside a SMILES is read from it. * marks the point of attachment. C20 diacid = O=C(O)CCCCCCCCCCCCCCCCCCC(=O)*; C18 diacid = O=C(O)CCCCCCCCCCCCCCCCC(=O)*; γGlu = O=C(O)[C@H](CCC(=O)[*:2])N[*:1]; AEEA = NCCOCCOCC(=O)O; Aib = CC(C)(N)C(=O)O

Columns and labels:
[1] = target: T1, human amylin receptor (calcitonin receptor co-expressed with receptor activity modifying protein, RAMP3) (hAMYR3) (Homo sapiens, UniProt O60896+P30988); experiment: cAMP production in 1321N1 cells with stable recombinant expression of human amylin receptor (hAMYR3); format: cell-based; settings: for Ratio (selectivity hAMYR vs hCTR, ratio of EC50 values at the two receptors): EC50 hCTR / EC50 hAMYR3; for EC50: cAMP, 1321N1 cells, assay buffer with 0.1% BSA, read-out: EC50 (pM) hAMYR3
T1 construct: expressed in transfected cells
T1 sequence (P30988 25-474): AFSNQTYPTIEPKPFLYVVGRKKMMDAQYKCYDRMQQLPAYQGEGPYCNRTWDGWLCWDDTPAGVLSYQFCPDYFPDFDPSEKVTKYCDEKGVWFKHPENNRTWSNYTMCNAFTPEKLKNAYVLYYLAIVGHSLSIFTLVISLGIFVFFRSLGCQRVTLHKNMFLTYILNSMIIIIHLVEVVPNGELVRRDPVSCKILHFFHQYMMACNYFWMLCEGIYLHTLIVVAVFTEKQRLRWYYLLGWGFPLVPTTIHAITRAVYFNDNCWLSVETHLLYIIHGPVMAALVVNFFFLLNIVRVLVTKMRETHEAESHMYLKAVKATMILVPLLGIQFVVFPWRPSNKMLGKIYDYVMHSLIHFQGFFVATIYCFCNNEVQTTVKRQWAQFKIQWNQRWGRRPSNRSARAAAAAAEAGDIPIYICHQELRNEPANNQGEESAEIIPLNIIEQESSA
T1 sequence (O60896 24-148 partner): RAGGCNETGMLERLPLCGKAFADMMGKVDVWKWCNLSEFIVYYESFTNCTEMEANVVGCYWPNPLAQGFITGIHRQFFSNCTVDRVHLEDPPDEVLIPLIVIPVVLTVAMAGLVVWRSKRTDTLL
How it was run: (§1)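 Receptor-expressing cells (human receptors in 1321N1, rat receptors in HEK) incubated 30 min at room temperature with peptide in HBSS/HEPES pH 7.4, 0.1% BSA, 0.5 mM IBMX. cAMP read by HTRF; EC50 from 4-parameter fit as % of maximal amylin or calcitonin response.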

[2] = target: T2, human calcitonin receptor (hCTR) (Homo sapiens, UniProt P30988); experiment: cAMP production in 1321N1 cells with stable recombinant expression of human calcitonin receptor (hCTR); format: cell-based; settings: cAMP, 1321N1 cells, assay buffer with 0.1% BSA; read-out: EC50 (pM) hCTR
T2 construct: expressed in transfected cells
T2 sequence (P30988 25-474): T1 sequence (P30988 25-474)
How it was run: as §1

[3] = Thioflavin T fibrillation assay; format: physicochemical; settings: for fibril-forming tendency: ThT assay, 1 mg/mL, pH 4.0, 37 °C, compared to pramlintide; for Time taken to detect increase in fluorescence intensity: ThT fibrillation assay, peptide 1 mg/mL in 25 mM sodium acetate buffer pH 4.0, 6 days at 37 °C with shaking, >144 h = no increase
How it was run: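 Peptides at 1 mg/mL in 25 mM sodium acetate pH 4.0 with ThT (from 0.25 mM stock), incubated 6 days at 37 °C with intermittent orbital shaking at 500–750 rpm. Fluorescence (ex 444/em 480 nm) read every 30 min; value is average time to a rise in baseline-corrected signal.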

[4] = in vivo; settings: male, Sprague-Dawley, rat, 20 nmol/kg
Experimental: PK studies were performed to determine the half-life (T1/2) of test peptides. T1/2 describes the time taken for the maximum plasma concentration (Cmax) of a test substance to halve its steady-state concentration when in circulation.
Male SD rats were purchased from Si Bei Fu Laboratory Animal Technology Co. Ltd (China). The animals were 6-8 weeks old with body weights of 200-300 g on the dosing date. The animals were housed in a 12-hour light/12-hour dark cycle environment and were fasted overnight before dosing. The body weight of the animals were recorded before dosing, 24 h and 48 h post dosing . Animals had free access to food and drinks, and the food consumption was quantified every day.
Test articles were administered at 20 nmol/kg. Blood samples were collected from each animal via Jugular vein.
The blood samples were transferred into eppendorf low binding tube containing K2 EDTA. Above 0.150 mL blood were collected at each time point. Blood samples were centrifuged at 4,000 g for 5 minutes at 4° C. to obtain plasma. The plasma samples were stored frozen at −75±15° C. until analysis.
Concentrations of the test articles in the plasma samples were analyzed using a LC-MS/MS method. Data acquisition was performed by LabSolution version 5.89 software (Shimadzu, Kyoto, Japan). Data statistics were performed using Excel 97-2003 software. The pharmacokinetic parameters of test articles were calculated using a non-compartmental approach with Phoenix™ VVinNonlin® 6.1.
The following pharmacokinetic parameters were calculated, whenever possible from the plasma concentration versus time data: • IV administration: T1/2, C0, AUClast, AUCinf, MRTinf, Cl, Vss, Number of Points for Regression. • SC administration: Tmax, Cmax, AUClast, AUCinf, MRTinf, F, Number of Points for Regression.

Ratio (selectivity hAMYR vs hCTR, ratio of EC50 values at the two receptors) [1]	EC50 [1] [pM]	EC50 [2] [pM]	fibril-forming tendency [3]	Time taken to detect increase in fluorescence intensity [3] [h]	half-life ([4]; iv) [h]	half-life ([4]; sc) [h]	Compound
30	248	7530	increases the fibril-forming tendency	<5	12	12	CC[C@H](C)[C@H](NC(=O)[C@@H]1CCCN1C(=O)CNC(=O)[C@H](Cc1ccccc1)NC(=O)[C@H](CC(N)=O)NC(=O)[C@H](CC(N)=O)NC(=O)[C@H](CO)NC(=O)[C@H](CO)NC(=O)[C@H](Cc1c[nH]cn1)NC(=O)[C@@H](NC(=O)[C@H](CC(C)C)NC(=O)[C@H](Cc1ccccc1)NC(=O)[C@H](CC(N)=O)NC(=O)[C@H](C)NC(=O)[C@H](CC(C)C)NC(=O)[C@H](CCCNC(=N)N)NC(=O)[C@H](CCC(N)=O)NC(=O)[C@@H](NC(=O)[C@H](C)NC(=O)[C@@H]1CSSC[C@H](NC(=O)[C@H](CCCCN)NC(=O)CNC(=O)CNC(=O)CNC(=O)CC[C@H](NC(=O)CC[C@H](NC(=O)CCCCCCCCCCCCCCCCC(=O)O)C(=O)O)C(=O)O)C(=O)N[C@@H](CC(N)=O)C(=O)N[C@@H]([C@@H](C)O)C(=O)N[C@@H](C)C(=O)N[C@@H]([C@@H](C)O)C(=O)N1)[C@@H](C)O)C(C)C)C(=O)N[C@@H](CC(C)C)C(=O)N1CCC[C@H]1C(=O)N1CCC[C@H]1C(=O)N[C@H](C(=O)N[C@@H](CC(N)=O)C(=O)N[C@H](C(=O)NCC(=O)N[C@@H](CO)C(=O)N[C@@H](CC(N)=O)C(=O)N[C@H](C(=O)N[C@@H](Cc1ccc(O)cc1)C(N)=O)[C@@H](C)O)C(C)C)[C@@H](C)O [Peptide 4] ({C18 diacid-γGlu-γGlu}-GGGKCNTATCATQRLANFLVHSSNNFGPILPPTNVGSNTY-NH2; disulfide 5-10)
21	174	3600	increases the fibril-forming tendency	7	10.5	9.4	CC[C@H](C)[C@H](NC(=O)[C@@H]1CCCN1C(=O)CNC(=O)[C@H](Cc1ccccc1)NC(=O)[C@H](CC(N)=O)NC(=O)[C@H](CC(N)=O)NC(=O)[C@H](CO)NC(=O)[C@H](CO)NC(=O)[C@H](Cc1c[nH]cn1)NC(=O)[C@@H](NC(=O)[C@H](CC(C)C)NC(=O)[C@H](Cc1ccccc1)NC(=O)[C@H](CC(N)=O)NC(=O)[C@H](C)NC(=O)[C@H](CC(C)C)NC(=O)[C@H](CCCNC(=N)N)NC(=O)[C@H](CCC(N)=O)NC(=O)[C@@H](NC(=O)[C@H](C)NC(=O)[C@@H]1CSSC[C@H](NC(=O)[C@@H](N)CCCCNC(=O)CC[C@H](NC(=O)CC[C@H](NC(=O)CCCCCCCCCCCCCCCCC(=O)O)C(=O)O)C(=O)O)C(=O)N[C@@H](CC(N)=O)C(=O)N[C@@H]([C@@H](C)O)C(=O)N[C@@H](C)C(=O)N[C@@H]([C@@H](C)O)C(=O)N1)[C@@H](C)O)C(C)C)C(=O)N[C@@H](CC(C)C)C(=O)N1CCC[C@H]1C(=O)N1CCC[C@H]1C(=O)N[C@H](C(=O)N[C@@H](CC(N)=O)C(=O)N[C@H](C(=O)NCC(=O)N[C@@H](CO)C(=O)N[C@@H](CC(N)=O)C(=O)N[C@H](C(=O)N[C@@H](Cc1ccc(O)cc1)C(N)=O)[C@@H](C)O)C(C)C)[C@@H](C)O [Peptide 5] (H-K([γGlu-γGlu-C18 diacid])CNTATCATQRLANFLVHSSNNFGPILPPTNVGSNTY-NH2; disulfide 2-7; N-terminus assumed)
5	68	310	increases the fibril-forming tendency	15	9.5	17.6	CC[C@H](C)[C@H](NC(=O)[C@@H]1CCCN1C(=O)CNC(=O)[C@H](Cc1ccccc1)NC(=O)[C@H](CC(N)=O)NC(=O)[C@H](CC(N)=O)NC(=O)[C@H](CO)NC(=O)[C@H](CO)NC(=O)[C@H](Cc1c[nH]cn1)NC(=O)[C@@H](NC(=O)[C@H](CC(C)C)NC(=O)[C@H](Cc1ccccc1)NC(=O)[C@H](CC(N)=O)NC(=O)[C@H](C)NC(=O)[C@H](CC(C)C)NC(=O)[C@H](CCCNC(=N)N)NC(=O)[C@H](CCC(N)=O)NC(=O)[C@@H](NC(=O)[C@H](C)NC(=O)[C@@H]1CSSC[C@H](NC(=O)[C@@H](N)CCCCNC(=O)COCCOCCNC(=O)COCCOCCNC(=O)CC[C@H](NC(=O)CCCCCCCCCCCCCCCCC(=O)O)C(=O)O)C(=O)N[C@@H](CC(N)=O)C(=O)N[C@@H]([C@@H](C)O)C(=O)N[C@@H](C)C(=O)N[C@@H]([C@@H](C)O)C(=O)N1)[C@@H](C)O)C(C)C)C(=O)N[C@@H](CC(C)C)C(=O)N1CCC[C@H]1C(=O)N1CCC[C@H]1C(=O)N[C@H](C(=O)N[C@@H](CC(N)=O)C(=O)N[C@H](C(=O)NCC(=O)N[C@@H](CO)C(=O)N[C@@H](CC(N)=O)C(=O)N[C@H](C(=O)N[C@@H](Cc1ccc(O)cc1)C(N)=O)[C@@H](C)O)C(C)C)[C@@H](C)O [Peptide 6] (H-K([AEEA-AEEA-γGlu-C18 diacid])CNTATCATQRLANFLVHSSNNFGPILPPTNVGSNTY-NH2; disulfide 2-7; N-terminus assumed)
4	770	3190	–	–	9.8	12.9	CC[C@H](C)[C@H](NC(=O)[C@H](C)NC(=O)[C@@H]1CCCN1C(=O)[C@H](Cc1ccccc1)NC(=O)[C@H](CC(N)=O)NC(=O)C(C)(C)NC(=O)[C@H](CO)NC(=O)[C@H](CO)NC(=O)[C@H](Cc1c[nH]cn1)NC(=O)[C@@H](NC(=O)[C@H](CC(C)C)NC(=O)[C@H](Cc1ccccc1)NC(=O)[C@H](CC(N)=O)NC(=O)[C@H](C)NC(=O)[C@H](CC(C)C)NC(=O)[C@H](CCCNC(=N)N)NC(=O)[C@H](CCC(N)=O)NC(=O)[C@@H](NC(=O)[C@H](C)NC(=O)[C@@H]1CSSC[C@H](NC(=O)[C@@H](N)CCCCNC(=O)CC[C@H](NC(=O)CC[C@H](NC(=O)CCCCCCCCCCCCCCCCCCC(=O)O)C(=O)O)C(=O)O)C(=O)N[C@@H](CC(N)=O)C(=O)N[C@@H]([C@@H](C)O)C(=O)N[C@@H](C)C(=O)N[C@@H]([C@@H](C)O)C(=O)N1)[C@@H](C)O)C(C)C)C(=O)N[C@@H](CC(C)C)C(=O)N[C@@H](CO)C(=O)N1CCC[C@H]1C(=O)N[C@H](C(=O)N[C@@H](CC(N)=O)C(=O)N[C@H](C(=O)NCC(=O)N[C@@H](CO)C(=O)N[C@@H](CC(N)=O)C(=O)N[C@H](C(=O)N[C@@H](Cc1ccc(O)cc1)C(N)=O)[C@@H](C)O)C(C)C)[C@@H](C)O [Peptide 117, K(γE-γE-C20diacid)[CNTATC]ATQRLANFLVHSS(Aib)NFPAILSPTNVGSNTY-amide] (H-K([γGlu-γGlu-C20 diacid])CNTATCATQRLANFLVHSS[Aib]NFPAILSPTNVGSNTY-NH2; disulfide 2-7; N-terminus assumed)
